Literature values, collected in patent US20090192228A1 (ACTAVIS GROUP PTC EHF, priority 2008, published 2009).

Conditions: compared with oxybutynin

Compound: CC(C)N(CCC(c1ccccc1)c1cc(CO)ccc1O)C(C)C (stereo not shown)
- Side-effects relative to oxybutynin, particularly propensity to cause dry mouth: considerably fewer side-effects
